The source of these data is US20060156431A1, “L-gulose dependent vitamin C synthesis” (Vlaams Interuniversitair Instituut Voor Biotechnologie VZW, priority 2003, published 2006).

Broadly, the Km is the concentration of substrate that gives half-maximal velocity. As usually defined, the inhibition is the change of the read-out against control, counted positive when it falls. As a reminder, the pKi is the negative decadic logarithm of the Ki, by convention in mol/L. Read a high pKi as a small Ki. The term pIC50 denotes the IC50 on a negative log10 scale, so that one unit is a factor of ten. Read a low pIC50 as a large IC50.

pIC50, pKi: −log10 of the molar value. Like-named read-outs stand apart in the source and are kept apart here.

In test [1] the target is T1, GDP-Man 3″,5″-epimerase of A. thaliana (Arabidopsis thaliana, UniProt Q93VR3).
T1 construct: The hydroxylapatite fraction of native epimerase (11) was used; endogenous in cells; host or cells: Arabidopsis thaliana ecotype Columbia cell suspensions; enzyme purified, hydroxylapatite fraction
T1 sequence (Q93VR3 1-377): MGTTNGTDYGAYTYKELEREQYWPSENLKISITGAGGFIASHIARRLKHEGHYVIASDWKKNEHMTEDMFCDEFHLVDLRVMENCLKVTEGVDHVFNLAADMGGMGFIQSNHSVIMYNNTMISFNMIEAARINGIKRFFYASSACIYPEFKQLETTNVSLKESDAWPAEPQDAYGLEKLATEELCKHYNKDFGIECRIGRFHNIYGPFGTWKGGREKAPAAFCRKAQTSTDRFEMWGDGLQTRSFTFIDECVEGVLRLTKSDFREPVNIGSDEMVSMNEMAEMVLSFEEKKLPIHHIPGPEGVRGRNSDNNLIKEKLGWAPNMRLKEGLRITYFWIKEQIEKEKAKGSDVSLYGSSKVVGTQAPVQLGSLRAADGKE
Put plainly: GDP-Man 3″,5″-epimerase assay (HPLC). The note with it: for epimerase activity: purified epimerase, exogenously added dinucleotide; for inhibition at 1000 µM: read-out: inhibition of the epimerase activity. The format is biochemical.
Experimental: Characterization of GDP-Man 3″,5″-epimerase of A. thaliana. (A) Steady-state parameters of the native (purified from A. thaliana cell suspensions) and recombinant enzyme. The hydroxylapatite fraction of native epimerase (11) was used. The affinity-purified recombinant enzymes were used. […] Double reciprocal plots are shown and each line represents a fixed GDP concentration: 0 μM, circles; 2 μM, triangles; and 4 μM, squares. V0 is pmol of GDP-L-Gal/L-Gul produced per minute. GDP-Man concentrations were from 1.1 to 5.5 μM. Inset: Secondary plot of slopes versus GDP concentration was used to determine the Ki value for GDP. […] Incubations contained GDP-[^14C]Man (3.4 μM), increasing amounts of GDP-L-Fuc, and an aliquot of the hydroxylapatite fraction of epimerase. Kinetic measurements were performed in duplicates; standard deviation was equal or less than 5%.

In test [2] the test system is A. thaliana cell suspensions. Put plainly: In vivo labeling of A. thaliana cell suspensions with D-[U-14C]Man and L-AA determination. Type of test: cell-based, Arabidopsis thaliana. The note with it: pre-incubated 20 hours with 2.5 mM compound; for [^14C]-labeled L-AA / [^14C]-labeled L-AA (% of control): labeled two hours with D-[U-14C]Man; for Cold L-AA: acid extracts, HPLC. How it is done:
GDP-Man 3″,5″-epimerase assay and L-AA determination. The GDP-Man 3″,5″-epimerase activity and L-AA were measured by the HPLC method as described (13), with the exception that the concentration of methanol in solvent A was 0.5% and the flow rate was 0.8 ml/min.
In vivo labeling of A. thaliana cell suspensions with D-[U-14C]Man. In vivo labeling of A. thaliana cells was performed as described (13). Cell suspensions were pre-adapted to labeling conditions for 20 hours in the presence or absence of exogenous L-AA or its precursors (2.5 mM), followed by two hours labeling with 1 μCi of D-[U-14C]Man. L-AA was extracted with 5% metaphosphoric acid containing 2 mM DTT and 1 mM EDTA.

For the next test, the system named is Chlorella epimerase. Conditions: read-out: Km for the GDP-Man substrate; cited from earlier work.

As to `O=C[C@@H](O)[C@H](O)[C@H](O)[C@@H](O)CO` [L-galactose], in test [1] (1 mM), the “inhibition of the epimerase activity” value is listed as “no effect”. In addition, in test [2], the “Cold L-AA (% of control)” value is 315 % of control, the “[^14C]-labeled L-AA” value was 423 10^−3 × cpm/mg fw, the “[^14C]-labeled L-AA (% of control)” value was 32 % of control and the “Cold L-AA” value is given as 668 nmol/g fw.
For `Nc1nc2c(ncn2[C@@H]2O[C@H](COP(=O)(O)OP(=O)(O)O[C@H]3O[C@H](CO)[C@@H](O)[C@H](O)[C@@H]3O)[C@@H](O)[C@H]2O)c(=O)[nH]1` [GDP-Man, GDP-D-mannose], the Km in test [1] (native epimerase, FIG. 1A, read-out: Km for the GDP-Man substrate) was 4.4 µM; in the test on Chlorella epimerase, 96 µM.
For the compound `NC(=O)c1ccc[n+]([C@@H]2O[C@H](COP(=O)([O-])OP(=O)(O)OC[C@H]3O[C@@H](n4cnc5c(N)ncnc54)[C@H](O)[C@@H]3O)[C@@H](O)[C@H]2O)c1` [NAD+], the epimerase activity in test [1] is on record as 145 % of control.
As to `O=C1O[C@H]([C@@H](O)CO)C(O)=C1O` [L-AA, L-ascorbic acid], the inhibition at 1000 µM in test [1] (1 mM) was determined as 15%. In test [2], the “Cold L-AA (% of control)” value is on record as 832 % of control, the “[^14C]-labeled L-AA” value is on record as 448 10^−3 × cpm/mg fw, the “[^14C]-labeled L-AA (% of control)” value is given as 33 % of control and the “Cold L-AA” value is 1764 nmol/g fw.
With `NC(=O)C1=CN([C@@H]2O[C@H](COP(=O)(O)OP(=O)(O)OC[C@H]3O[C@@H](n4cnc5c(N)ncnc54)[C@H](OP(=O)(O)O)[C@@H]3O)[C@@H](O)[C@H]2O)C=CC1` [NADPH], the epimerase activity in test [1] is given as 88 % of control.
In the case of `O=C1O[C@H]([C@@H](O)CO)[C@H](O)[C@@H]1O` [L-Gulono-1,4-lactone, L-gulono-1,4-lactone], in test [2], the “Cold L-AA (% of control)” value is 165 % of control, the “[^14C]-labeled L-AA” value is 722 10^−3 × cpm/mg fw, the “[^14C]-labeled L-AA (% of control)” value is recorded as 54 % of control and the “Cold L-AA” value is given as 345 nmol/g fw.
`Nc1nc2c(ncn2[C@@H]2O[C@H](COP(=O)(O)OP(=O)(O)O[C@H]3O[C@H](CO)[C@@H](O)[C@H](O)[C@H]3O)[C@@H](O)[C@H]2O)c(=O)[nH]1` [GDP-Glc, guanosine diphospho-D-glucose]: the pKi in test [1] is 5.30.
In the case of `O=C1O[C@H]([C@@H](O)CO)[C@@H](O)[C@@H]1O` [L-galactono-1,4-lactone], in test [1], the inhibition at 1000 µM was 14%. In test [2], the “Cold L-AA (% of control)” value is recorded as 170 % of control, the “[^14C]-labeled L-AA” value is recorded as 790 10^−3 × cpm/mg fw, the “[^14C]-labeled L-AA (% of control)” value is reported as 59 % of control and the “Cold L-AA” value worked out at 360 nmol/g fw.
Regarding `NC(=O)c1ccc[n+]([C@@H]2O[C@H](COP(=O)([O-])OP(=O)(O)OC[C@H]3O[C@@H](n4cnc5c(N)ncnc54)[C@H](OP(=O)(O)O)[C@@H]3O)[C@@H](O)[C@H]2O)c1` [NADP+], the epimerase activity in test [1] is 110 % of control.
As to `O=C[C@@H](O)[C@@H](O)[C@H](O)[C@@H](O)CO` [L-Gulose, L-gulose], in test [2], the “Cold L-AA (% of control)” value is listed as 190 % of control, the “[^14C]-labeled L-AA” value is 872 10^−3 × cpm/mg fw, the “[^14C]-labeled L-AA (% of control)” value is on record as 65 % of control and the “Cold L-AA” value amounted to 403 nmol/g fw.
As to `C[C@@H]1O[C@H](OP(=O)(O)OP(=O)(O)OC[C@H]2O[C@@H](n3cnc4c(=O)[nH]c(N)nc43)[C@H](O)[C@@H]2O)[C@@H](O)[C@H](O)[C@@H]1O` [GDP-L-Fuc, Guanosine diphospho-L-fucose], the pIC50 in test [1] is 4.15. Also, the “type of inhibition of the epimerase” value in test [1] (even at 1 mM concentration) was “partial inhibition”.
As to `O=C1O[C@H]([C@H](O)CO)C(O)=C1O` [D-isoascorbic acid], the “inhibition of the epimerase activity” value in test [1] (1 mM) is “no effect”.
`Nc1nc2c(ncn2[C@@H]2O[C@H](COP(=O)(O)OP(=O)(O)O)[C@@H](O)[C@H]2O)c(=O)[nH]1` [GDP] showed a pKi in test [1] of 6.15.
For “adenosine diphospho-D-glucose [ADP-D-Glc]”, in test [1] (adenosine derivative), the “effect on the enzyme activity” value is reported as “no effect”.
On to `NC(=O)C1=CN([C@@H]2O[C@H](COP(=O)(O)OP(=O)(O)OC[C@H]3O[C@@H](n4cnc5c(N)ncnc54)[C@H](O)[C@@H]3O)[C@@H](O)[C@H]2O)C=CC1` [NADH], for which, in test [1], the epimerase activity was 78 % of control.
